This note sets out measurements from patent US20220202624A1, “SELF-ADHESIVE SILICONE GEL LOADED WITH MICROPARTICLES, PARTICLES WITH IMPROVED ADHESION” (priority 2019, published 2022).

SMILES strings stand for the structures.

The nature of data set [1]: Gel consistency: elastic shear modulus G′ by rheometer. In kind it is physicochemical. Particulars: 4.8% Isopropyl Myristate in gel, vs pure gel (Table 7). The source says:
1. Preparation of Materials for Performance Characterization. • Characterization of rheological properties: for these characterizations, a ˜0.6 g sample of non-crosslinked SACSG should be placed in the measuring cell. In the case of mixtures obtained by the direct mode, a sample of the degassed mixture whose preparation has just been described is used. If Parts A′ and B′ which have been obtained by the indirect method are available, both Parts A′ and B′ are rehomogenised if necessary, equivalent masses of A′ and B′ are weighed and mixed with a spatula; after degassing at 20-50 mbar at room temperature until the bubbles are eliminated (about 10 minutes), a sample of the mixture may be taken and placed in the measuring cell. […]
The consistency of the gels is characterized by their elastic shear modulus, which is measured as follows: • rheometer: Thermofisher RS 6000. • Plan-Plan cell: rotor with 20 mm radius, rotor/stator gap=0.5 mm. • mode: imposed stress=10 Pa. • oscillation frequency: 1 Hz. • temperature: sample installation at 30°. • closing of the cell in two steps: 3 mm/mn until D=1.5 mm, then 0.15 mm/mn until D=0.5 mm. • temperature rise to 70° in 60 s. • measurement G′-G″ at 70° for 4000 s, return to 30°. […]

Data set [2] can be described thus: Miscibility / solubility of added substances in self-adhesive silicone gel (SASG). Particulars: liquid in SASG.

With `CCCCCCCCCCCCCC(=O)OC(C)C` [Isopropyl Myristate], the “drop of G′ value” in data set [1] is 20%.

Turning to `COC(=O)c1ccccc1O` [Methyl Salicylate], the “miscibility with SASG” value in data set [2] is reported as 12-15%.
